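Five concentrations, 48 hours, 96-well plates. TGI is the concentration that stops growth completely.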
What was measured:
Assay in all cases: NCI anticancer screen, dose series, 48 h
CCRF-CEM leukemia = test system: CCRF-CEM leukemia
NCI-H460 lung = test system: NCI-H460 lung
SF-539 CNS = test system: SF-539 CNS
U251 CNS = test system: U251 CNS
OVCAR-4 ovarian = test system: OVCAR-4 ovarian
SK-MEL-2 melanoma = test system: SK-MEL-2 melanoma
NCI-H23 lung = test system: NCI-H23 lung
NCI-H226 lung = test system: NCI-H226 lung
MDA-MB-231 breast = test system: MDA-MB-231 breast
HCT-116 colon = test system: HCT-116 colon
A549 NSCLC = test system: A549 NSCLC
HCT-15 colon = test system: HCT-15 colon
RXF 393 renal = test system: RXF 393 renal
NCI/ADR-RES ovarian = test system: NCI/ADR-RES ovarian
SK-MEL-28 melanoma = test system: SK-MEL-28 melanoma
T-47D breast = test system: T-47D breast
HOP-92 NSCLC = test system: HOP-92 NSCLC
PC-3 prostate = test system: PC-3 prostate
UACC-257 melanoma = test system: UACC-257 melanoma
RPMI-8226 leukemia = test system: RPMI-8226 leukemia
EKVX NSCLC = test system: EKVX NSCLC
M14 melanoma = test system: M14 melanoma
786-0 renal = test system: 786-0 renal
SF-295 CNS = test system: SF-295 CNS
SF-268 CNS = test system: SF-268 CNS
OVCAR-5 ovarian = test system: OVCAR-5 ovarian
MALME-3M melanoma = test system: MALME-3M melanoma
HOP-62 NSCLC = test system: HOP-62 NSCLC
MDA-MB-435 = test system: MDA-MB-435
OVCAR-8 ovarian = test system: OVCAR-8 ovarian
UACC-62 melanoma = test system: UACC-62 melanoma
CAKI-1 renal = test system: CAKI-1 renal
DU-145 prostate = test system: DU-145 prostate
HL-60(TB) leukemia = test system: HL-60(TB) leukemia
ACHN renal = test system: ACHN renal
COLO 205 colon = test system: COLO 205 colon
SK-MEL-5 melanoma = test system: SK-MEL-5 melanoma
MDA-N = test system: MDA-N
NCI-H522 lung = test system: NCI-H522 lung
MCF7 breast = test system: MCF7 breast
UO-31 renal = test system: UO-31 renal
K-562 leukemia = test system: K-562 leukemia
SK-OV-3 ovarian = test system: SK-OV-3 ovarian
SN12C renal = test system: SN12C renal
SR leukemia = test system: SR leukemia
KM12 colon = test system: KM12 colon
HS 578T breast = test system: HS 578T breast
HCC-2998 colon = test system: HCC-2998 colon
BT-549 breast = test system: BT-549 breast
MOLT-4 leukemia = test system: MOLT-4 leukemia
SNB-19 CNS = test system: SNB-19 CNS
IGROV1 ovarian = test system: IGROV1 ovarian
TK-10 renal = test system: TK-10 renal
A498 renal = test system: A498 renal
HT29 colon = test system: HT29 colon
OVCAR-3 ovarian = test system: OVCAR-3 ovarian

## COC(=O)c1c(O)ccc2c1c1cc3ccccc3c(O)c1n2Cc1ccccc1Cl
CCRF-CEM leukemia
  TGI: > 100 µM
NCI-H460 lung
  TGI: 78.4 µM
SF-539 CNS
  TGI: 33.7 µM
U251 CNS
  TGI: > 100 µM
OVCAR-4 ovarian
  TGI: 51.1 µM
SK-MEL-2 melanoma
  TGI: 40.7 µM
NCI-H23 lung
  TGI: 46.2 µM
NCI-H226 lung
  TGI: > 100 µM
MDA-MB-231 breast
  TGI: > 100 µM
HCT-116 colon
  TGI: 28 µM
A549 NSCLC
  TGI: > 100 µM
HCT-15 colon
  TGI: 77.1 µM
RXF 393 renal
  TGI: > 100 µM
NCI/ADR-RES ovarian
  TGI: 64.3 µM
SK-MEL-28 melanoma
  TGI: 46.4 µM
T-47D breast
  TGI: 60.7 µM
HOP-92 NSCLC
  TGI: 91.7 µM
PC-3 prostate
  TGI: > 100 µM
UACC-257 melanoma
  TGI: > 100 µM
RPMI-8226 leukemia
  TGI: 70 µM
EKVX NSCLC
  TGI: 87.1 µM
M14 melanoma
  TGI: 59.1 µM
786-0 renal
  TGI: 54.1 µM
SF-295 CNS
  TGI: 40.3 µM
SF-268 CNS
  TGI: 97.7 µM
OVCAR-5 ovarian
  TGI: > 100 µM
MALME-3M melanoma
  TGI: 74.7 µM
HOP-62 NSCLC
  TGI: 59.3 µM
MDA-MB-435
  TGI: 40.3 µM
OVCAR-8 ovarian
  TGI: > 100 µM
UACC-62 melanoma
  TGI: 65.4 µM
CAKI-1 renal
  TGI: 61.9 µM
DU-145 prostate
  TGI: > 100 µM
HL-60(TB) leukemia
  TGI: 74.9 µM
ACHN renal
  TGI: 95.7 µM
COLO 205 colon
  TGI: 30.4 µM
SK-MEL-5 melanoma
  TGI: 56.2 µM
MDA-N
  TGI: 61.8 µM
NCI-H522 lung
  TGI: 29.5 µM
MCF7 breast
  TGI: > 100 µM
UO-31 renal
  TGI: 64.1 µM
K-562 leukemia
  TGI: > 100 µM
SK-OV-3 ovarian
  TGI: 48.6 µM
SN12C renal
  TGI: > 100 µM
SR leukemia
  TGI: > 100 µM
KM12 colon
  TGI: 61.8 µM
HS 578T breast
  TGI: 84.4 µM
HCC-2998 colon
  TGI: 47.7 µM
BT-549 breast
  TGI: 91.7 µM
MOLT-4 leukemia
  TGI: > 100 µM
SNB-19 CNS
  TGI: > 100 µM
IGROV1 ovarian
  TGI: 44.8 µM
TK-10 renal
  TGI: > 100 µM
A498 renal
  TGI: > 100 µM
HT29 colon
  TGI: 25 µM
OVCAR-3 ovarian
  TGI: 39.8 µM

From PubChem BioAssay (NCI)
